Here are results for 22 compounds from US6329502A, “β-amino-α-hydroxycarboxylic acid derivatives and HIV protease inhibitors” (priority 1990, dated 2001).

One test concerns the target recombinant HIV protease (Human immunodeficiency virus type 1 group M subtype B, UniProt P12497). As to conditions: inhibitor 5 μM (final concentration), 2.0 μg enzyme.
With `CC[C@H](C)[C@H](NC(=O)[C@@H]1CCCN1C(=O)[C@@H](O)[C@H](Cc1ccccc1)NC(=O)[C@H](CC(N)=O)NC(=O)OCc1ccccc1)C(=O)NCC1CCCCC1` [Example 32, Benzyloxycarbonyl-Asn-(2S,3S)-AHPBA-Pro-Ile-NH--CH2 --C6 H11], the residual enzymic activity was 11.0%.

The next test concerns the target T1, chemically synthesized HIV protease (Human immunodeficiency virus type 1 group M subtype B, UniProt P12497, C555A/C583A).
T1 construct: The HIV protease was chemically synthesized; made in house; host or cells: chemical peptide synthesis, no expression host
In kind it is biochemical. As to conditions: inhibitor 5 μM (final concentration). Here is the method: The HIV protease was chemically synthesized by replacement of two cysteine residues in the natural sequence [Science, 230, 349 (1985)] with alanine residues. The reaction mixture contained 100 mM MES buffer (pH 5.5), 40 mM of substrate (Ac-[…]NH2 trifluoro-acetate), inhibitors at varying concentrations dissolved in DMSO and 9.2 μg of the HIV protease in a total volume of 15 μl. Incubation was carried out at 37° C. for 60 min. The reaction was started by the addition of the enzyme and terminated by 15 μl of acetonitrile. The amount of a fragment peptide produced was measured by reversed-phase HPLC analysis using an internal standerd. The HPLC condition was as followes.
Solvent A: 0.1% trifluoroacetic acid aqueous solution
Gradient: B was increased in 1.0%/min from 100% of A,
For the compound `CC[C@H](C)[C@H](NC(=O)[C@@H]1CCCN1C(=O)[C@@H](O)[C@H](Cc1ccccc1)NC(=O)[C@H](CC(N)=O)NC(=O)OCc1ccccc1)C(=O)NCC1CCCCC1` [Example 32, Benzyloxycarbonyl-Asn-(2S,3S)-AHPBA-Pro-Ile-NH--CH2 --C6 H11], the “Residual Activity (%) 5 μM” value amounted to 4.0%.

Still in this test, the particulars now being: inhibitor 1 mM.
As for `CC(C)(C)OC(=O)N[C@@H](CC(N)=O)C(=O)N[C@@H](Cc1ccccc1)[C@@H](O)C(=O)NCC1CCCCC1` [Example 1, Boc-Asn-(2R,3S)-AHPBA-NH--CH2 --C6 H11], the “Residual Activity (%) 1 mM” value is recorded as 32.8%.
Same read-out and setting: in the case of `CC(C)(C)OC(=O)N[C@@H](Cc1ccccc1)C(=O)N[C@@H](CC(N)=O)C(=O)N[C@@H](Cc1ccccc1)[C@@H](O)C(=O)NCC1CCCCC1` [Example 2, Boc-Phe-Asn-(2R,3S)-AHPBA-NH--CH2 --C6 H11] it was 19.5%; in that of `CC(C)(C)OC(=O)N[C@@H](CC(N)=O)C(=O)N[C@@H](Cc1ccccc1)[C@H](O)C(=O)NCC1CCCCC1` [Example 3, Boc-Asn-(2S,3S)-AHPBA-NH--CH2 --C6 H11], 52.9%.
Still for that read-out and setting: the same measure for `CC(C)(C)OC(=O)N[C@@H](Cc1ccccc1)C(=O)N[C@@H](CC(N)=O)C(=O)N[C@@H](Cc1ccccc1)[C@H](O)C(=O)NCC1CCCCC1` [Example 4, Boc-Phe-Asn-(2S,3S)-AHPBA-NH--CH2 --C6 H11]: 20.3%; for `CC(C)(C)OC(=O)N[C@@H](CO)C(=O)N[C@@H](Cc1ccccc1)[C@@H](O)C(=O)NCC1CCCCC1` [Example 5, Boc-Ser-(2R,3S)-AHPBA-NH--CH2 --C6 H11]: 82.9%.
Still for that read-out and setting: in the case of `CC(C)(C)OC(=O)N[C@@H](Cc1ccccc1)C(=O)N[C@@H](CO)C(=O)N[C@@H](Cc1ccccc1)[C@@H](O)C(=O)NCC1CCCCC1` [Example 6, Boc-Phe-Ser-(2R,3S)-AHPBA-NH--CH2 --C6 H11] it was 33.3%.
In the case of `CC(C)(C)OC(=O)N[C@@H](CO)C(=O)N[C@@H](Cc1ccccc1)[C@H](O)C(=O)NCC1CCCCC1` [Example 7, Boc-Ser-(2S,3S)-AHPBA-NH--CH2 --C6 H11], the “Residual Activity (%) 1 mM” value was determined as 15.6%.
Same read-out and setting: in the case of `CC(C)(C)OC(=O)N[C@@H](Cc1ccccc1)C(=O)N[C@@H](CO)C(=O)N[C@@H](Cc1ccccc1)[C@H](O)C(=O)NCC1CCCCC1` [Example 8, Boc-Phe-Ser(2S,3S)-AHPBA-NH--CH2 --C6 H11] it was 47.0%; in that of `NC(=O)C[C@H](N)C(=O)N[C@@H](Cc1ccccc1)[C@@H](O)C(=O)NCC1CCCCC1` [Example 9, H-Asn-(2R,3S)-AHPBA-NH--CH2 --C6 H11], 92.1%.
The same measure, in the same setting: the same measure for `NC(=O)C[C@H](NC(=O)[C@@H](N)Cc1ccccc1)C(=O)N[C@@H](Cc1ccccc1)[C@@H](O)C(=O)NCC1CCCCC1` [Example 10, H-Phe-Asn-(2R,3S)-AHPBA-NH--CH2 --C6 H11]: 43.4%.
For `NC(=O)C[C@H](NC(=O)[C@@H](N)Cc1ccccc1)C(=O)N[C@@H](Cc1ccccc1)[C@H](O)C(=O)NCC1CCCCC1` [Example 11, H-Phe-Asn-(2S,3S)-AHPBA-NH--CH2 --C6 H11], the “Residual Activity (%) 1 mM” value was found to be 16.4%.
Still for that read-out and setting: in the case of `N[C@@H](CO)C(=O)N[C@@H](Cc1ccccc1)[C@@H](O)C(=O)NCC1CCCCC1` [Example 12, H-Ser-(2R,3S)-AHPBA-NH--CH2 --C6 H11] it was 89.7%; in that of `N[C@@H](Cc1ccccc1)C(=O)N[C@@H](CO)C(=O)N[C@@H](Cc1ccccc1)[C@@H](O)C(=O)NCC1CCCCC1` [Example 13, H-Phe-Ser-(2R,3S)-AHPBA-NH--CH2 --C6 H11], 58.9%; in that of `N[C@@H](CO)C(=O)N[C@@H](Cc1ccccc1)[C@H](O)C(=O)NCC1CCCCC1` [Example 14, H-Ser-(2S,3S)-AHPBA-NH--CH2 --C6 H11], 95.5%.
Consider `N[C@@H](Cc1ccccc1)C(=O)N[C@@H](CO)C(=O)N[C@@H](Cc1ccccc1)[C@H](O)C(=O)NCC1CCCCC1` [Example 15, H-Phe-Ser-(2S,3S)-AHPBA-NH--CH2 --C6 H11], for which the “Residual Activity (%) 1 mM” value worked out at 23.8%.
Still for that read-out and setting: the same measure for `CC[C@H](C)[C@H](NC(=O)[C@@H]1CCCN1C(=O)[C@@H](O)[C@H](Cc1ccccc1)NC(=O)OC(C)(C)C)C(=O)OC1CCCCC1` [Example 28, Boc-(2S,3S)-AHPBA-Pro-Ile-O--C6 H11]: 63.9%; for `CC[C@H](C)[C@H](NC(=O)[C@@H]1CCCN1C(=O)[C@H](O)[C@H](Cc1ccccc1)NC(=O)OC(C)(C)C)C(=O)OC1CCCCC1` [Example 29, Boc-(2R,3S)-AHPBA-Pro-Ile-O--C6 H11]: 88.3%; for `CC[C@H](C)[C@H](NC(=O)[C@@H]1CCCN1C(=O)[C@@H](O)[C@H](Cc1ccccc1)NC(=O)OC(C)(C)C)C(=O)NCC1CCCCC1` [Example 30, Boc-(2S,3S)-AHPBA-Pro-Ile-NH--CH2 --C6 H11]: 23.4%.
As for `CC[C@H](C)[C@H](NC(=O)[C@@H]1CCCN1C(=O)[C@H](O)[C@H](Cc1ccccc1)NC(=O)OC(C)(C)C)C(=O)NCC1CCCCC1` [Example 31, Boc-(2R,3S)-AHPBA-Pro-Ile-NH--CH2 --C6 H11], the “Residual Activity (%) 1 mM” value was found to be 47.4%.
Same read-out and setting: in the case of “Boc-(2S,3S)-AHPBA-(cHexm)Gly-Ile-NH--CH2 --C6 H11 [Example 33]” it was 85.6%.
On the same count and under the same terms, in the case of “H-Val-Val-(2R,3S)-AHPBA-(D)-Phe-(D)-Val-(D)-Val-NH2 [Example 23]” it was 28.3%.
